Test system: mouse peritoneal macrophages
Assay: PAF and lyso-PAF production in LPS-primed, A23187-stimulated peritoneal macrophages
Assay type: cell-based
Details: 5 μM A23187 5 min
Experimental: RAW-mLPCAT2 cells and peritoneal macrophages were seeded in 24-well plates (4 × 10^6 cells/well) for 24 or 2 h, respectively, before treatment. RAW-mLPCAT2 cells were stimulated with 5 μM A23187 for 5 min after a 1 h treatment with the compounds. Peritoneal macrophages were preincubated with 100 ng/ml LPS for 18 h, treated with the compounds for 1 h, and stimulated with 5 μM A23187 for 5 min. To analyze cellular PAF levels, lipids were extracted with 500 μl methanol containing d4-PAF and d4-lyso-PAF as internal standards. Each sample was submitted to solid phase extraction using an Oasis HLB 96-well cartridge cluster (Waters), and PAF and lyso-PAF were measured by LC-MS/MS as previously described ([13]).
Chromatography was performed using an Acquity™ Ultra-performance LC system (Waters) coupled to a TSQ Vantage triple stage quadrupole mass spectrometer (Thermo Scientific) with a HESI-II electrospray ionization source ([13]). Phospholipids were separated on BEH C8 columns (1.7 μm, 2.1 × 30 mm or 1 × 100 mm; Waters) for the analysis of assay products or the composition of cellular PAF and lyso-PAF, respectively. The mobile phase contained 20 mM aqueous ammonium bicarbonate and acetonitrile. The extracts from peritoneal macrophages were separated on a Kinetex C8 column (1.7 μm, 2.1 × 100 mm; Phenomenex, Torrance, CA) by a gradient elution with 0.05% formic acid-water and acetonitrile, using the Nexera X2 system and LCMS-8080 mass spectrometer (Shimadzu, Kyoto, Japan) ([13]). Lyso-PAF, d4-PAF, and d31-DPPC were identified by the choline fragment (m/z 184) as a product ion of selected reaction monitoring in the positive ion mode. Nonlabeled PAF and d4-16:0/20:4 alkyl-PC were determined by fatty acid anions of sn-2 composition (m/z 59 and 303, respectively) in the negative ion mode. […] Signal intensities were determined relative to the internal standard or as the percentage of the positive control.
The effect of TSI-01 on PAF and lyso-PAF biosynthesis was evaluated using thioglycollate-elicited mouse peritoneal macrophages. […]

CC(C)OC(=O)c1ccc(N2C(=O)C(Cl)=C(Cl)C2=O)cc1 [TSI-01, propan-2-yl 4-(3,4-dichloro-2,5-dioxopyrrol-1-yl)benzoate]
PAF levels (60 μM TSI-01, LPS 18 h, compound 1 h): below the detection limit
PAF levels in A23187-stimulated cells (LPS 100 ng/ml 18 h, TSI-01 1 h): decreased
lyso-PAF levels (LPS 100 ng/ml 18 h, TSI-01 1 h): not changed

Source: publication PMC4076079, “Selective inhibitors of a PAF biosynthetic enzyme lysophosphatidylcholine acyltransferase 2” (Journal of Lipid Research, 2014)
